Article PMC4655258 (Enzyme Research, 2015)
Read-outs that look alike come from different tables or passages of the source.

How the values were obtained:
[1] = cited from earlier work
CYP1B1 = system: CYP1B1; parameters: method as in PMID 18256205; details: cited from earlier work
CYP2A6 = target: T1, CYP2A6 (Homo sapiens, UniProt P11509); experiment: Fluorometric HTS enzyme assay, recombinant CYP2A6 (coumarin substrate); assay type: biochemical; details: ±SEM, 3 replicate assays; 3 μM coumarin
T1 construct: purchased BD Bioscience (Woburn, MA); host or cells: baculovirus-infected insect cells (microsomes, supersomes)
T1 sequence (P11509 1-494): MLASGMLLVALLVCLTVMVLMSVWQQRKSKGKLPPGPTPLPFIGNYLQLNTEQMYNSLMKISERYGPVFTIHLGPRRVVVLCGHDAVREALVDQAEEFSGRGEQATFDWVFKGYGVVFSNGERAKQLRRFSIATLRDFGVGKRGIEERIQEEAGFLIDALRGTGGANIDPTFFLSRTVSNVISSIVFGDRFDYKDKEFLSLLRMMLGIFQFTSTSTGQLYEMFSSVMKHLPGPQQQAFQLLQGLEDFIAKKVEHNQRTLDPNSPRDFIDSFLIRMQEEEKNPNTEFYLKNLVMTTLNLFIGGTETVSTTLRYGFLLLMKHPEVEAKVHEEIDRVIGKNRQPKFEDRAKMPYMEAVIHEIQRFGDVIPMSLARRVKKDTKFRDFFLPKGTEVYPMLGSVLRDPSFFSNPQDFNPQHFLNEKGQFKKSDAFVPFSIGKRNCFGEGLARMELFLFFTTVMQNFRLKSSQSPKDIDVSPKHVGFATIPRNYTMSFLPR
Description: (§1) IC50 determinations for human CYPs were similar to HTS methods described by Crespi et al.. Unless otherwise stated, the incubations were carried out in a total volume of 200 μL of 50 mM potassium phosphate buffer (pH 7.4) with 1% acetonitrile. The reaction mixtures contained NADPH-regenerating system in potassium phosphate buffer (pH 7.4) and varying amounts of inhibitor (dissolved in 100% acetonitrile) were preincubated at 37°C for 10 minutes (except CYP2A6 which was in 100 mM Tris buffer pH 7.4). The reactions were initiated by the addition of enzyme/substrate mixture (see Table 1), followed by incubation at 37°C for 30 minutes. The fluorescent signal was measured using a SpectraMax GEMINI XPS (Molecular Devices) with excitation and emission wavelengths listed in Table 1. The data were fit to sigmoidal dose-response curves with nonlinear regression and IC50 values calculated using GraphPad Prism 5.

CYP3A4 = target: T2, CYP3A4 (Homo sapiens, UniProt P08684); experiment: Fluorometric HTS enzyme assay, recombinant CYP3A4 (BFC substrate); assay type: biochemical; details: recombinant CYP3A4, pH 7.4, probe BFC, at 1 mM
T2 construct: purchased BD Bioscience (Woburn, MA); host or cells: baculovirus-infected insect cells (microsomes, supersomes)
Description: as §1

CYP1A1 = target: T3, CYP1A1 (Homo sapiens, UniProt P04798); experiment: Fluorometric HTS enzyme assay, recombinant CYP1A1 (CEC substrate); assay type: biochemical; details: ±SEM, 3 replicate assays; 5 μM CEC
T3 construct: purchased BD Bioscience (Woburn, MA); host or cells: baculovirus-infected insect cells (microsomes, supersomes)
T3 sequence (P04798 1-512): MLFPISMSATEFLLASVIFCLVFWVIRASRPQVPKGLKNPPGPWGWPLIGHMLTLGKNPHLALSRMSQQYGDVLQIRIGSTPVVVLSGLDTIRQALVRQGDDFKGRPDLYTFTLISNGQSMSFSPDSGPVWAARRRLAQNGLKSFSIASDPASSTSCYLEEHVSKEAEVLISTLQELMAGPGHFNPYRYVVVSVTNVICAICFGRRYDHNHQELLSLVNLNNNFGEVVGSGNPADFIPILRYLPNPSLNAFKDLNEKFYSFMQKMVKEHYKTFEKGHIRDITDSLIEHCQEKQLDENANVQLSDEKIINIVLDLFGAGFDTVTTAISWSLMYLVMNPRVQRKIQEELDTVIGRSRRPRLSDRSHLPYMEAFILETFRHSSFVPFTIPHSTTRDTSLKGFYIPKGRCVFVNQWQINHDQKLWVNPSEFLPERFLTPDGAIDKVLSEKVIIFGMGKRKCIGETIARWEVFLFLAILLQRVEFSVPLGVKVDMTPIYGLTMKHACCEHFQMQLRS
Description: as §1

T2 sequence (P08684 whole entry): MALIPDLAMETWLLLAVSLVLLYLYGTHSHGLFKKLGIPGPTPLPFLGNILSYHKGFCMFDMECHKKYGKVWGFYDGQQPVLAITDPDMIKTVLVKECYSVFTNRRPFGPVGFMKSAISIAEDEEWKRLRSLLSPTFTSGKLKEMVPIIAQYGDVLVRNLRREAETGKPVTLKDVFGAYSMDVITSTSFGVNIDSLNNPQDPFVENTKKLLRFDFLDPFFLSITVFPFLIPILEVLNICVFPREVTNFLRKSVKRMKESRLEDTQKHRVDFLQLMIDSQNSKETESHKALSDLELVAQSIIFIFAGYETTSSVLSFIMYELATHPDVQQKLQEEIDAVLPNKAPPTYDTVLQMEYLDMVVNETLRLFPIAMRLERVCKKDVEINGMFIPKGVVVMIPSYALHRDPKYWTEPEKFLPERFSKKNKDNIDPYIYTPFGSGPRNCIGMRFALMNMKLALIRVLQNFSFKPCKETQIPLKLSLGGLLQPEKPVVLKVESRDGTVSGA

IC50 (CYP2A6)	inhibition at 30 min, 1 mM (CYP3A4)	IC50 (CYP1A1)	SMILES	effect of pretreatment on liver pharmacokinetics of [11C]-vorozole binding ([1]; pretreatment with ketoconazole)	IC50 (CYP1B1; 2-hydroxy estradiol formation, read-out: IC50 on CYP1B1, estradiol 2-hydroxylation)	IC50 (CYP1B1; 4-hydroxy estradiol formation, read-out: IC50 on CYP1B1, estradiol 4-hydroxylation)	effect of pretreatment on [11C]-vorozole binding in the liver ([1]; baboon and human liver, pretreatment with letrozole)
			CC(=O)N1CCN(c2ccc(OCC3COC(Cn4ccnc4)(c4ccc(Cl)cc4Cl)O3)cc2)CC1 (stereo not shown) [ketoconazole]	altered			
106 ± 34 µM	< 10%	69.8 ± 5.3 µM	N#Cc1ccc(C(c2ccc(C#N)cc2)n2cncn2)cc1 [Letrozole]		≥ 100 µM	≥ 100 µM	does not block
